Source: patent US20230242591A1, “REGULATORY T CELL EPITOPES AND D[…]-COV-2 ANTIGENS” (EPIVAX, INC., priority 2020, published 2023)

System: CD4+ effector memory T cells
Assay type: cell-based, human

PSFYVYSRVKNLNSSRVPDLLV (Severe acute respiratory syndrome coronavirus 2) [SEQ ID NO: 7]
suppression of proliferation and activation of CD4+ effector T cells: Suppressed Proliferation and Activation
